Measured values: paper PMC12281475, “Mediator Kinase Inhibitor Selectivity and Activity in Colorectal Cancer” (ACS Chemical Biology, 2025)

Assays:
SW620 cells = assay: Promoter reporter panel (transient luciferase constructs), SW620; assay type: cell-based, human; settings: parent SW620, 350 nM, 6 h
Description: Transcription factor activity was assayed in cell lines using 45 different plasmid reporter constructs encoding firefly luciferase under the control of a basal promoter element downstream of specific transcriptional response elements (Qiagen, Germany; Supporting Table S1). Firefly luciferase under the control of basal promoter element alone was used to establish the baseline signal and cotransfection of a construct expressing renilla luciferase from a CMV-promoter was used as a transfection control. Cells were reverse-transfected with reporter plasmids, compounds were added 42 h post transfection and reporter activity quantified following 6 h continuous exposure. […]
multichannel pipette. Where indicated, spheroids were treated at day 4. At days 3, 6 and 8 following compound addition, 50% medium replenishment was performed. Cell-titre Glo analyses were carried out at day 14 for luminescence measurement on a Synergy 2 SL Luminescence microplate reader (BioTek, UK). Values are means ± […]
Single and double knockout clones of human SW620 colon cancer cells lacking CDK8, CDK19 or both kinases were generated using a CRISPR/Cas9 knockout strategy.
Constructs for knockout carried a Cas9 gene, a fluorescent protein gene (GFP for CDK8 and RFP for CDK19) and sgRNAs to human CDK8 […]
Single and double CDK8 and CDK19 knockout clones were generated by transiently transfecting SW620 cells using Lipofectamine 3000 (Thermo Fisher Scientific, UK).
Cells were harvested 72 hours post-transfection and the top 1% GFP, RFP or GFP/RFP positive cells were sorted by FACS into 96 well plates at one cell/well.
Knockout clones were identified by a capillary immunoassay for CDK8 or CDK19 […]
kinase mutant (CDK8D173A)2 were established by transfection of CDK8 CRISPR knockout clone 1 with a pCMV6-CDK8-cMyc-FLAG construct.
Transcription factor promoter reporter assays were carried out to define signalling pathways and biological processes modulated by CDK8/19 ligands. […]
and body weights recorded.

[1] = system: phospho-STAT1^SER727 in SW620 tumor xenografts; assay: Tumor phospho-STAT1 SER727 relative to total STAT1, electrochemiluminescent ELISA; assay type: in vivo, mice; settings: 6 h after final dose
[2] = system: SW620 human solid tumor xenografts; assay: Antitumor activity in SW620 tumor xenografts (parent and knockout clones); settings: 42 mg/kg p.o. qd 5/7 days, 14-20 days
Description: Three separate clones were run for each knockdown condition (n = 7 control or treated mice per group for the parent and each individual clone). Tumors and plasma were collected 6 h after the final dose. For all graphs an ordinary one-way ANOVA with Dunnett’s correction was run to determine significance. […] Each point represents data from a knockout clone.
The establishment, treatment, pharmacokinetic analyses and processing of tumor samples from solid tumor xenografts was performed as described previously previously. , All procedures were performed in accordance with published NCRI guidelines and UK Government Home Office regulations.
The establishment, treatment, pharmacokinetic analysis and processing of tissue
samples from human tumour xenografts was performed as described previously.3,4 All
procedures were performed in accordance with published guidelines and UK
Government Home Office regulations.5 Female athymic nude mice Crl:NU-Foxn1nu
(Charles River Laboratories, US) were acclimatized for 1 week prior to use. Five million
SW620 human colorectal carcinoma cells were injected s.c. in the right flanks of 6–8
weeks old female NCr athymic mice under isofluorothane anesthesia. Therapy was
initiated when established tumours reached a mean volume of 60 mm (day 7). Animals
were randomly assigned into cohorts. Control mice received vehicle (0.5% Methocel,
at 42 mg/kg p.o qd for 5/7 days with a 2-day break after 1 week's dosing.
was prepared 24 h prior to administration to mice by weighing into a glass 30 mL
universal tube, and Methocel solution (0.5% Methocel, 0.25% Tween 20 in sterile
phosphate buffered saline) added to provide a final concentration of 3 mg/mL.
preparation was agitated at room temperature by magnetic stirrer to bring it into a fine
suspension before use. Animals were dosed orally by gavage every 24 h at 0.1 mL
per 10 g body weight. Tumours were measured three times weekly by Vernier calipers and body weights recorded. At the end of the study, day 3 for pharmacodynamic
biomarker analysis and day 14 for anti-tumour therapy experiments, animals were
culled 6 h after the final dose. Heparinized blood was collected by cardiac puncture,
spun, and the plasma snap frozen in liquid nitrogen for analysis of compound
exposure. Tumours were excised, weighed and samples snap frozen for compound

[3] = 14-20 days, 42 mg/kg p.o qd 5/7 days

| SMILES | p53 reporter activity (SW620 cells) | AARE promoter reporter activity relative to vehicle control (SW620 cells; mean ± s.e.m) | AP1 promoter reporter activity relative to vehicle control (SW620 cells; mean ± s.e.m) | tumor phospho-STAT1 SER727, CDK8/19 clones [1, 3] | tumor phospho-STAT1 SER727, parent, CDK19 and CDK8 clones [1, 3] | tumor phospho-STAT1 SER727 levels, CDK8 and CDK8/19 knockouts ([1]; 3 days, 42 mg/kg p.o. qd, except CDK8-KO-cl2 (p < 0.05)) | tumor phospho-STAT1 SER727 levels, parent and CDK19 clones ([1]; 3 days, 42 mg/kg p.o. qd, p < 0.0001) | antitumor activity, treated/control (T/C) ([2]; CDK8/19 double knockout SW620 xenografts, p < 0.005) [%] | antitumor activity, treated/control (T/C) ([2]; CDK8 knockout SW620 xenografts, ± s.e.m.) [%] | antitumor activity, treated/control (T/C) ([2]; CDK19 knockout SW620 xenografts) [%] | antitumor activity, treated/control (T/C) ([2]; parental SW620 xenografts) [%] |
| --- | --- | --- | --- | --- | --- | --- | --- | --- | --- | --- | --- |
| Cn1cc(-c2ccc(-c3cncc(Cl)c3N3CCC4(CCNC4=O)CC3)cc2)cn1 [CCT251545] | significant decrease | 0.82 ± 0.06 | 0.78 ± 0.04 | – | – | – | – | – | – | – | – |
| Cn1ncc2cc(-c3cnc(N)c(Cl)c3N3CCC4(CCNC4=O)CC3)ccc21 [CCT251921] | – | – | – | not | significantly reduced | no significant change | significantly reduced | 113 ± 10 | 59 ± 6 | 66 ± 3 | 63 |
